Holding throughout (assay type): biochemical
The target of one assay is T1, human Factor Xa (Homo sapiens, UniProt P00742).
T1 construct: human Factor Xa from Enzyme Research Laboratories; purchased Enzyme Research Laboratories
Kind of assay: Inhibition constants for human factor Xa, chromogenic substrate assay. As to conditions: 25° C., Pefachrome FXa substrate, average of at least three determinations; read-out: Ki h FXa. The procedure: (§1) The inhibitory effect against the individual purified enzymes was determined in analogy to a previously disclosed method (Stürzebecher et al., J. Med. Chem., 40, 3091-3099 (1997)).
(§2) 200 μL of TBS (0.05 M trishydroxymethylaminomethane; 0.154 M NaCl, 2% ethanol, pH 8.0)
(§3) The release of p-nitroaniline (p-NA, the chromogenic product of the proteolytic activity), was determined by change in absorbance at 405 nm. The equilibrium rates were used to calculate the inhibitor/enzyme dissociation constant (Ki values) by parameter fitting in accordance with the rate equation for competitive inhibition using GraFit (version 4 from Erithacus). The results are reported as Ki values (nanomolar) in table 7 and are the average of at least three determinations.

Assay [1] addresses T2, Human urokinase type plasminogen activator (h u-PA) (Homo sapiens, UniProt P00749).
T2 construct: purchased MEDAC GmbH Urokinase HS medac
Kind of assay: Inhibition of human urokinase type plasminogen activator (reference enzyme). The conditions noted are these: H-Glu-Gly-Arg-pNA substrate. As to the method:
as §1, §3
(§4) Dissociation constants were calculated as described herein.

The target in assay [2] is T3, Subcomponent "s" of Human Complement Component 1 (h C1s) (Homo sapiens, UniProt P09871).
T3 construct: purchased Calbiochem
T3 sequence (P09871 438-688 limits assumed): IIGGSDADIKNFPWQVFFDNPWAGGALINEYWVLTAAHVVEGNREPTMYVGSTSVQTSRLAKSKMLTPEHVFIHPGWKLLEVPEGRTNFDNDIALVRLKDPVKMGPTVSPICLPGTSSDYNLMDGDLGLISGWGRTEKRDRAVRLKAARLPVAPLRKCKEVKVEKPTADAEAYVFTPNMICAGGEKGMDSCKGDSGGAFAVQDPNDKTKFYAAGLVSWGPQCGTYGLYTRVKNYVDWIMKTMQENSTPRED
T3 sequence (P09871 16-437 partner limits assumed): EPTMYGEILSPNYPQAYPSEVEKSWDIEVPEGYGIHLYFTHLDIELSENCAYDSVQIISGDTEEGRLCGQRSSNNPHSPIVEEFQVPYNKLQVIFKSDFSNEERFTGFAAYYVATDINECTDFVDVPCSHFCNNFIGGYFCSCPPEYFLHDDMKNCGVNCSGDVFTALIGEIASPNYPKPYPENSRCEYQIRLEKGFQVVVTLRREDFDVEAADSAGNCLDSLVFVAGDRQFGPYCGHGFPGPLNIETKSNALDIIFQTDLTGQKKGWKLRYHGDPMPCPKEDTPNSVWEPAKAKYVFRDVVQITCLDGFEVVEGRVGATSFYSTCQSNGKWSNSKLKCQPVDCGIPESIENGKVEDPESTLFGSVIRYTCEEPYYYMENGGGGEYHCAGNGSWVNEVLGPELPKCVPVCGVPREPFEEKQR
The assay can be described thus: Inhibition of human C1s (reference enzyme). The conditions noted are these: S-2314 substrate; read-out: Ki h Cls. The procedure: as §1, §3, §4

The target in assay [3] is T4, Human tissue-type plasminogen activator (h t-PA) (Homo sapiens, UniProt P00750).
T4 construct: purchased Boehringer Ingelheim Actilyse
T4 sequence (P00750 36-562): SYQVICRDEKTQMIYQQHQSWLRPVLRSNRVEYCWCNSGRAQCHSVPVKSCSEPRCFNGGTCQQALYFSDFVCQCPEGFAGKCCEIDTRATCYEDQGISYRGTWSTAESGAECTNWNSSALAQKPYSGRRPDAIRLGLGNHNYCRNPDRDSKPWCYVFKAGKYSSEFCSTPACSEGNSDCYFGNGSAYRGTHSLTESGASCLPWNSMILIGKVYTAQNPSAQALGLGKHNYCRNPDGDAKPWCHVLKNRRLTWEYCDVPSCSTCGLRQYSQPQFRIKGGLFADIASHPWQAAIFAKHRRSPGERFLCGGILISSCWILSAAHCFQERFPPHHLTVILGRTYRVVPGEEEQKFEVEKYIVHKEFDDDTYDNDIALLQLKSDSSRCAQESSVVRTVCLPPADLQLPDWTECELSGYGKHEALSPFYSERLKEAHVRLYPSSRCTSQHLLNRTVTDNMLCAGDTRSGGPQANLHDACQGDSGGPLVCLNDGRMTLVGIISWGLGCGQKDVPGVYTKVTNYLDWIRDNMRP
The assay can be described thus: Inhibition of human tissue-type plasminogen activator (reference enzyme). The conditions noted are these: Pefachrome tPA substrate; read-out: Ki h t-PA. As to the method:
The equilibrium rates were used to calculate the inhibitor/enzyme dissociation constant (Ki values) by parameter fitting in accordance with the rate equation for competitive inhibition using GraFit (version 4 from Erithacus).
as §4

The target in assay [4] is T5, Human Activated Protein C (h aPC) (Homo sapiens, UniProt P04070).
T5 construct: purchased Enzyme Research Laboratories
T5 sequence (P04070 212-450 limits assumed): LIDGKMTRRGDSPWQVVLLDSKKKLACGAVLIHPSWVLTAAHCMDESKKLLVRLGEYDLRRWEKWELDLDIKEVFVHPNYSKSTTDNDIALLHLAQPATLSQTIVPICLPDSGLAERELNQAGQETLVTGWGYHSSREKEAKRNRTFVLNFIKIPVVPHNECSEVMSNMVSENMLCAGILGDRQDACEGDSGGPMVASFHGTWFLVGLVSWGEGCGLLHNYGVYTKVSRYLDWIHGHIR
T5 sequence (P04070 43-197 partner limits assumed): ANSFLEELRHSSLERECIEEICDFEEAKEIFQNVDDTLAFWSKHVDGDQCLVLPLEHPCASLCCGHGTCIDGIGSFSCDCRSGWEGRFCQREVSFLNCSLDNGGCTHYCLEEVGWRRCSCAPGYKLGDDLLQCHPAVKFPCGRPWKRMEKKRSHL
Kind of assay: Inhibition of human activated protein C (reference enzyme). The conditions noted are these: Pefachrome PCa substrate. The procedure:
as §1, §3, §4

The target of assay [5] is T6, Subcomponent "r" of Human Complement Component 1 (h C1r) (Homo sapiens, UniProt P00736).
T6 construct: purchased Calbiochem
T6 sequence (P00736 464-705 limits assumed): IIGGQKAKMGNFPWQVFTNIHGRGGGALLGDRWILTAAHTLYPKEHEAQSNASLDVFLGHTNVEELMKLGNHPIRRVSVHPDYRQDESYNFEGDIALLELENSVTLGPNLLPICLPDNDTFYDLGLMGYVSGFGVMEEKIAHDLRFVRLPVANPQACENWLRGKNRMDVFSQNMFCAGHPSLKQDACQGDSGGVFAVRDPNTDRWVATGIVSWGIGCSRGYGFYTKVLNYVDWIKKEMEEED
T6 sequence (P00736 18-463 partner limits assumed): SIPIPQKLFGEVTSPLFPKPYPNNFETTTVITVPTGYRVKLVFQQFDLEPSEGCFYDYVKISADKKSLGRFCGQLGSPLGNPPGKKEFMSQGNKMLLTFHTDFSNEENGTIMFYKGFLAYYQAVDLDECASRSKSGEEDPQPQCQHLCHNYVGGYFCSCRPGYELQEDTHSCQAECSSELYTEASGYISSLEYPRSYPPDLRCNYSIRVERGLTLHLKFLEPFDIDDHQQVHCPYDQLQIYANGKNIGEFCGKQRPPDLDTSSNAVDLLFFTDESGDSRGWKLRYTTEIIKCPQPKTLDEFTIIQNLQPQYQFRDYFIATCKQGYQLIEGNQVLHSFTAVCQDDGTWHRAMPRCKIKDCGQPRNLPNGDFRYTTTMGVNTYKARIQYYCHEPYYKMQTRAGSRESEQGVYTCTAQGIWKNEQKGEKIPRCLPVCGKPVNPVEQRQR
Kind of assay: Inhibition of human C1r (reference enzyme). The conditions noted are these: S-2314 substrate; read-out: Ki h Clr. As to the method: as §1, §3, §4

Assay [6] addresses T7, human factor IIa (human alpha-thrombin) (Homo sapiens, UniProt P00734).
T7 construct: human alpha-thrombin from Enzyme Research Laboratories; purchased Enzyme Research Laboratories
Kind of assay: Inhibition constants for human factor IIa, chromogenic substrate assay. The conditions noted are these: 25° C., Pefachrome tPA substrate, average of at least three determinations; read-out: Ki h FIIa. The procedure: as §1, §2, §3

Assay [7] addresses T8, Human plasmin (h plasmin) (Homo sapiens, UniProt P00747).
T8 construct: purchased Calbiochem
Kind of assay: Inhibition of human plasmin (reference enzyme). As to conditions: Chromozym PL substrate. The procedure:
as §1, §3, §4

The target in assay [8] is T9, Human plasma kallikrein (h PK) (Homo sapiens, UniProt P03952).
T9 construct: purchased Enzyme Research Laboratories
T9 sequence (P03952 391-638 limits assumed): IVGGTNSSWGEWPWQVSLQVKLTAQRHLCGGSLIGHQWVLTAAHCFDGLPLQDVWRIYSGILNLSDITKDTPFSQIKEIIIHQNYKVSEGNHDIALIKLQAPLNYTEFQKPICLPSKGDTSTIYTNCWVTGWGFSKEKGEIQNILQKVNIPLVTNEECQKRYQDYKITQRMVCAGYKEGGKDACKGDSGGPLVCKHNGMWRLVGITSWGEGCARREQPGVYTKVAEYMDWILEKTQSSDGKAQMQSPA
T9 sequence (P03952 20-390 partner limits assumed): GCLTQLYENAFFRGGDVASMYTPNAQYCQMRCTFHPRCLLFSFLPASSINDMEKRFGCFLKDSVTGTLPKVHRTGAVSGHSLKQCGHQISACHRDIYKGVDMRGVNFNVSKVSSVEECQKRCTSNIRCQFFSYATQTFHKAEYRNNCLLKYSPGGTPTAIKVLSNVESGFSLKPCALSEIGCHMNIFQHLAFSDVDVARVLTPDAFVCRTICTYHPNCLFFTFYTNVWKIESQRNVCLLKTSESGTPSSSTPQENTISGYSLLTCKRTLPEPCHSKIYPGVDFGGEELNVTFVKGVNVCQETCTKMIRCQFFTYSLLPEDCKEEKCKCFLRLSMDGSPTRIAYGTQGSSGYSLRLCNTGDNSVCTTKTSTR
Kind of assay: Inhibition of human plasma kallikrein (reference enzyme). As to conditions: S2302 substrate. The procedure: as §1, §3, §4

For assay [9], the target named is T10, Human urinary kallikrein (h uKK) (Homo sapiens, UniProt P06870).
T10 construct: purchased Lee Biosolutions
T10 sequence (P06870 25-262): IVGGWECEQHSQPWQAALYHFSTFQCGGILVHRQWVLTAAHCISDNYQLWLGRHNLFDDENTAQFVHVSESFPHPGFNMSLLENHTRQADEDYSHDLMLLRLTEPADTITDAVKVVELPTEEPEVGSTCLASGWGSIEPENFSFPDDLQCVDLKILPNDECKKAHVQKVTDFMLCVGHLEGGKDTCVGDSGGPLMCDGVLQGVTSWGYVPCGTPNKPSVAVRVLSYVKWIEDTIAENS
The assay can be described thus: Inhibition of human urinary kallikrein (reference enzyme). As to conditions: S-2266 substrate. The procedure:
as §1, §3, §4

The text below walks through data of patent publication US8497245B2, “Trypsin-like serine protease inhibitors, their preparation and use as selective inhibitors of the clotting factors IIa and Xa” (The Medicines Company (Leipzig) GmbH, priority 2010, dated 2013).

T8 sequence (P00747 581-810 limits assumed): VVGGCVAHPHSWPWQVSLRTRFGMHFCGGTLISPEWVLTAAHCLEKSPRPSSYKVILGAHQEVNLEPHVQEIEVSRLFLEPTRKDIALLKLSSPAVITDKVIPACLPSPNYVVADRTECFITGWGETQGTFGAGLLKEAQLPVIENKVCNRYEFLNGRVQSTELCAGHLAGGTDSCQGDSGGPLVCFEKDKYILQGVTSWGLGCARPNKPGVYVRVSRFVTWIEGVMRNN
T8 sequence (P00747 97-580 partner limits assumed): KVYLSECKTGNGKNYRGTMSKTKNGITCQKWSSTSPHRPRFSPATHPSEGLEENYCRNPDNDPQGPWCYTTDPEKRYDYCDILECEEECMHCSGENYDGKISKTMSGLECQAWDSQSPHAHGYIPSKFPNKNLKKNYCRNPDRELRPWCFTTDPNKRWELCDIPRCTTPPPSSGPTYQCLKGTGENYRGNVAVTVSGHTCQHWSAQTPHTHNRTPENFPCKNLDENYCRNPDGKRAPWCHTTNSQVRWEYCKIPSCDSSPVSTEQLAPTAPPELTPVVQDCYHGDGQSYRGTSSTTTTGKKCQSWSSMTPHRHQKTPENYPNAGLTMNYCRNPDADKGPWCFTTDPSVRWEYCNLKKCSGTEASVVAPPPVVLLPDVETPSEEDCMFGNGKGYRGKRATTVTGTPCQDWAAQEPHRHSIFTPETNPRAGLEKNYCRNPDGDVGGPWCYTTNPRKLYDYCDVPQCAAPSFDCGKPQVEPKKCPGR
T1 sequence (P00742 235-488 limits assumed): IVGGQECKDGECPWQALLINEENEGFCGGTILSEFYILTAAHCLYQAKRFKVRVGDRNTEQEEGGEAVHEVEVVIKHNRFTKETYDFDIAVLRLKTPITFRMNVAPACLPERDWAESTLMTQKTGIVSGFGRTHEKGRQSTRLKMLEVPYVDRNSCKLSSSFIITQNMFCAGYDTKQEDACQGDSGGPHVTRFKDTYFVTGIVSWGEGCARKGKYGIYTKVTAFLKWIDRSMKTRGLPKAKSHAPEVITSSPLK
T1 sequence (P00742 41-179 partner limits assumed): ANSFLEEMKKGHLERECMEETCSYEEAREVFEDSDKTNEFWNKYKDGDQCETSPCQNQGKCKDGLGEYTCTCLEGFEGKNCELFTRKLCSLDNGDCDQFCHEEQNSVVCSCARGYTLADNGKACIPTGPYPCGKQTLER

For `NCc1ccc(Cl)cc1CNC(=O)[C@@H]1C[C@H](N)CN1C(=O)[C@@H](CC(=O)N1CCCCC1)NS(=O)(=O)Cc1ccccc1` [Compound 2.6], the inhibition constant (Ki) at human Factor Xa is 0.049 nM; in [1] it was above 30 µM; in [2] it was above 20 µM; in assay [3], 5.05 µM; in assay [4] it was above 100 µM; in assay [5] it was above 20 µM. Also, the Ki in assay [6] was 0.00018 µM; in assay [7], 8.75 µM; in assay [8] it was 0.335 µM; in assay [9], above 50 µM.
In the case of `NCc1ccc(Cl)cc1CNC(=O)[C@@H]1C[C@@H](N)CN1C(=O)[C@@H](CCC(=O)N1CCOCC1)NS(=O)(=O)Cc1ccccc1` [Compound 2.25], the Ki is 1.1 nM on human Factor Xa; above 30 µM in assay [1]; above 100 µM in [2]; above 50 µM in assay [3]; above 100 µM in assay [4]; above 20 µM in assay [5]. Moreover, the Ki in assay [6] is 0.0047 µM; in assay [7], above 10 µM; in assay [8] it was 2.58 µM; in [9], above 50 µM.
On to `NCc1ccc(Cl)cc1CNC(=O)[C@@H]1C[C@H](O)CN1C(=O)[C@@H](CCC(=O)N1CCOCC1)NS(=O)(=O)Cc1ccccc1` [Compound 2.22], for which the inhibition constant Ki on human Factor Xa was 0.68 nM; in [1] it was above 100 µM; in assay [2] it was above 50 µM; in assay [3] it was above 100 µM; in [4], above 25 µM; in assay [5], above 100 µM. The Ki in assay [6] is 0.085 µM; in assay [7] it was above 100 µM; in assay [8], 2.69 µM; in assay [9], above 100 µM.
As for `NCc1ccc(Cl)cc1CNC(=O)[C@@H]1CCCN1C(=O)[C@@H](CCC(=O)N1CCC(N)CC1)NS(=O)(=O)Cc1ccccc1` [Compound 2.32], the inhibition constant Ki is 33 nM on human Factor Xa; above 100 µM in assay [1]; above 100 µM in assay [2]; above 50 µM in assay [3]; above 100 µM in assay [4]; above 100 µM in [5]. Besides, the inhibition constant (Ki) in [6] is 0.00015 µM; in [7], above 20 µM; in assay [8], 3.06 µM; in [9], above 10 µM.
In the case of `NCc1ccc(Cl)cc1CNC(=O)[C@@H]1CCCN1C(=O)[C@@H](CC(=O)N1CCCC1)NS(=O)(=O)Cc1ccccc1` [Compound 2.8], the Ki at human Factor Xa is 0.13 nM; in [1] it was above 80 µM; in assay [2] it was above 50 µM; in assay [3] it was above 10 µM; in [4] it was above 40 µM; in assay [5], above 100 µM. Besides, the inhibitory constant (Ki) in [6] was 0.00021 µM; in assay [7], above 20 µM; in [8], 0.337 µM; in assay [9], above 100 µM.
Regarding `NCc1ccc(Cl)cc1CNC(=O)[C@@H]1CCCCN1C(=O)[C@@H](CCC(=O)N1CCOCC1)NS(=O)(=O)Cc1ccccc1` [Compound 2.15], the inhibition constant Ki was 9.4 nM at human Factor Xa; above 50 µM in [1]; above 50 µM in [2]; above 10 µM in [3]; above 10 µM in assay [4]; above 20 µM in assay [5]. Also, the Ki in assay [6] is 0.0007 µM; in [7], above 5 µM; in assay [8], 7.2 µM; in assay [9], above 10 µM.
Regarding `NCc1ccc(Cl)cc1CNC(=O)[C@@H]1C[C@H](N)CN1C(=O)[C@@H](CC(=O)N1CCNCC1)NS(=O)(=O)Cc1ccccc1` [Compound 2.35], the Ki on human Factor Xa is 0.79 nM; in assay [1] it was above 20 µM; in assay [2], above 15 µM; in assay [3] it was 1 µM; in [4], above 100 µM; in [5] it was above 100 µM. Besides, the Ki in assay [6] is 0.0044 µM; in [7], above 3 µM; in assay [8], 0.351 µM; in assay [9], above 50 µM.
Take `NCc1ccc(Cl)cc1CNC(=O)[C@@H]1CCN1C(=O)[C@@H](CC(=O)N1CCOCC1)NS(=O)(=O)Cc1ccccc1` [Compound 2.44]: the Ki at human Factor Xa is 0.87 nM; in [1], above 50 µM; in assay [2], above 100 µM; in assay [3], above 35 µM; in [4], above 100 µM; in assay [5] it was above 100 µM. The inhibitory constant (Ki) was 0.004 µM in [6], above 10 µM in assay [7], 1.83 µM in assay [8] and above 20 µM in assay [9].
With `CN1CCN(C(=O)C[C@@H](NS(=O)(=O)Cc2ccccc2)C(=O)N2CCC[C@H]2C(=O)NCc2cc(Cl)ccc2CN)CC1` [Compound 2.18], the Ki at human Factor Xa is 7.9 nM; in assay [1] it was above 100 µM; in assay [2], above 50 µM; in assay [3] it was above 50 µM; in assay [4], above 100 µM; in assay [5], above 25 µM. Moreover, the Ki in [6] is 0.0015 µM; in [7], above 10 µM; in assay [8], 0.17 µM; in assay [9], above 20 µM.
Take `NCc1ccc(Cl)cc1CNC(=O)CC[C@@H](NS(=O)(=O)Cc1ccccc1)C(=O)N1CCC[C@H]1C(=O)NCc1cc(Cl)ccc1CN` [Compound 2.30]: the inhibitory constant (Ki) on human Factor Xa was 8.6 nM; in assay [1] it was above 40 µM; in assay [2], above 80 µM; in [3] it was above 20 µM; in assay [4], above 25 µM; in [5], above 30 µM. The inhibitory constant (Ki) in [6] is 0.00099 µM; in assay [7], above 5 µM; in [8], 0.432 µM; in assay [9], above 20 µM.
Regarding `CC(=O)N1CCC(CN(C)C(=O)C[C@@H](NS(=O)(=O)Cc2ccccc2)C(=O)N2CCC[C@H]2C(=O)NCc2cc(Cl)ccc2CN)CC1` [Compound 2.17], the inhibitory constant (Ki) is 3.7 nM on human Factor Xa; above 40 µM in assay [1]; above 100 µM in [2]; above 100 µM in assay [3]; above 40 µM in assay [4]; above 10 µM in assay [5]. Also, the Ki in [6] was 0.0002 µM; in assay [7], above 5 µM; in [8], 0.417 µM; in assay [9], above 20 µM.

A word on the Ki: it is the dissociation constant of the complex between target and ligand, obtained from inhibition or displacement.
